Experimental findings from patent US5488106A are described below.

One test deals with PC1 (Penase) (Staphylococcus aureus, UniProt P00807). In words: Spectrophotometric inhibition with 10 minute preincubation, nitrocefin substrate. It is filed as biochemical.
The target of test [1] is β-lactamase Tal 3636 CcrA (Bacteroides fragilis, UniProt P25910). The test can be described thus: biochemical. It is filed as biochemical. The protocol:
Representative compounds of the present invention are also tested to determine inhibition of an isolated metallo enzyme Group 3, the β-lactamase Tal 3636 CcrA. […] In the CI assay, enzyme is added last to a mixture of inhibitor and buffer. In the TDI assay, nitrocefin is added last to a mixture of enzyme and inhibitor that had been incubating for approximately 7 minutes.

For a further test, the target named is P99 (Cephase) (Enterobacter cloacae, UniProt P05364). In words: Spectrophotometric inhibition with 10 minute preincubation, nitrocefin substrate. Format: biochemical. Particulars: for IC50: 10 minute preincubation, 25° C.
The target in the next test is TEM-2 (Bd Spectrum) (Escherichia coli, UniProt P62593, Q37K). It is filed as biochemical. Particulars: Table III.
Test [2] relates to E. coli strains containing β-lactamases. The test can be described thus: Microbiological testing with piperacillin, β-lactamase-containing strains (summary in words). As to conditions: β-lactamase-producing strains.
The next test has as its target CcrA (Metallo) (Bacteroides fragilis, UniProt P25910). In words: Spectrophotometric inhibition with 10 minute preincubation, nitrocefin substrate. It is filed as biochemical. As to conditions: for IC50: 10 minute preincubation, 25° C.
The target of the next test is metallo-β-lactamase (Bacteroides fragilis, UniProt P25910). The test can be described thus: Long term inactivation of the metallo-β-lactamase, residual activity on nitrocefin. Format: biochemical. As to conditions: for remaining activity at 8 µM: 42 s, 8 μM inhibitor, after 0.7 minutes, read-out: control activity of metallo-β-lactamase remaining. On the procedure:
To test for long term inactivation of the metallo-β-lactamase, the inhibitors are mixed with enzyme and incubated overnight. Enzyme activity is tested for at periodic intervals by diluting the enzyme-inhibitor mixture into nitrocefin and comparing the enzymatic activity against that of an enzyme incubated only in assay broth. […].

In the next test the test system is E. coli + TEM-1. In words: MIC of piperacillin, broth serial two-fold dilutions, alone or 1:1 with inhibitor. As to conditions: piperacillin alone.
In a further test the test system is E. coli 300. Described as above. As to conditions: piperacillin alone.
The subject of a further test is E. cloacae + P99. The test is described as above. Particulars: piperacillin alone.
For test [3], the system named is E. coli 300 + CcrA (metallo-enzyme). The test is described as above. Particulars: piperacillin alone.
Test [4] deals with E. coli 300 + P99 (cephase). The description is as above. As to conditions: piperacillin alone.
The mark [5] stands for this setting: CI: enzyme added last, 0.010M HEPES, pH 7.4, nitrocefin 100 μg/ml, read-out: IC50 CI HEPES.
The mark [6] stands for this setting: CI: enzyme added last, 0.05M phosphate buffer, pH 7.0, nitrocefin 100 μg/ml, read-out: IC50 CI PHOSPHATE
The mark [7] stands for this setting: TDI: approximately 7 minutes incubation, nitrocefin added last, 0.010M HEPES, pH 7.4, read-out: IC50 TDI HEPES.
Setting [8] is: TDI: approximately 7 minutes incubation, nitrocefin added last, 0.05M phosphate buffer, pH 7.0, read-out: IC50 TDI PHOSPHATE
[9] abbreviates: TDI: approximately 7 minutes incubation, nitrocefin added last, 0.010M HEPES, pH 7.4, 7 min, read-out: IC50 TDI HEPES.
[10] abbreviates: TDI: approximately 7 minutes incubation, nitrocefin added last, 0.05M phosphate buffer, pH 7.0, 7 min, read-out: IC50 TDI PHOSPHATE
Where [11] appears, read: 10 minute preincubation, 25° C., read-out: IC50 PC1 (Penase).

“Also recorded” adds a separate entry of the source. Counter-ions that a name gives are not always drawn. Like-named read-outs stand apart in the source and are kept apart here. Some results are limits rather than exact numbers.

At PC1 (Penase), `CC1(C)[C@H](C(=O)O)N2C(=O)C[C@H]2S1(=O)=O` [Sulbactam, sulbactam, reference compound] displayed an IC50 of 0.08 µM.

On PC1 (Penase), `C[C@]1(Cn2ccnn2)[C@H](C(=O)O)N2C(=O)C[C@H]2S1(=O)=O` [Tazobactam, tazobactam, reference compound] returned an IC50 of 0.032 µM.

Turning to `CC1(C)[C@H](C(=O)O)N2C(=O)[C@@H](CC3CC(Br)=NO3)[C@H]2S1(=O)=O` (single isomer, unassigned) [Example 16, 4-Thia-1-azabicyclo[3.2.0]heptane-2-carboxylic acid, 6-[(3-bromo-4,5-dihydro-5-isoxazolyl)methyl]-3,3-dimethyl-7-oxo-, 4,4-dioxide, sodium salt, [2S-[2α,5α,6β(R* or S*)]]-], the IC50 in [1] (setting [5]) was 18 µM; in test [1] (setting [6]), 48 µM; in [1] (setting [7]), 2.4 µM; in test [1] (setting [8]), 6 µM.

Regarding `Cc1ccc(C2=NOC(C[C@@H]3C(=O)N4[C@@H](C(=O)O)C(C)(C)S(=O)(=O)[C@H]34)C2)cc1` (stereo partly drawn) [Example 4, 4-Thia-1-azabicyclo[3.2.0]heptane-2-carboxylic acid, 6-[[4,5-dihydro-3-(4-methylphenyl)-5-isoxazolyl]-methyl]-3,3-dimethyl-7-oxo-, sodium salt, 4,4-dioxide, [2R-[2α,5α,6β(R*)]]-], the 50% inhibitory concentration (IC50) at P99 (Cephase) was 0.0028 µM; in test [1] (setting [5]) it was 9.7 µM; in test [1] (setting [6]), 16 µM; in test [1] (setting [9]), 1.3 µM; in [1] (setting [10]) it was 2 µM; at PC1 (Penase) (setting [11]), 0.72 µM. For the same compound, half-maximal inhibition on CcrA (Metallo) (IC50) required 0.65 µM. Besides, the “Inhibition of P99 Group 1 cephalosporinase (in words)” value at P99 (Cephase) (Table III) is “very potent inhibitor of the P99 Group 1 cephalosporinase”. Besides, the “Inhibition of 2b broad spectrum β-lactamase (in words)” value at TEM-2 (Bd Spectrum) is reported as “inhibited about equally”. Moreover, the “Microbiological activity / effect on MICs of piperacillin (in words)” value (from here on “Microbiological activity / effect”) in test [2] is given as “lowers the MICs for all the β-lactamases-producing strains; also recorded: more potent in vitro activity against the P99 cephase than the product of Example 10”. Moreover, the “Inhibition of PC1 Group 2a penicillinase (in words)” value on PC1 (Penase) (Table III) is on record as “inhibited about equally”. Also, the “Inhibition of Group 3 metallo-β-lactamases (in words)” value at CcrA (Metallo) (Table III) is “inhibited about equally”. For the same compound, the remaining activity at 8 µM at metallo-β-lactamase stood at 44%. The compound also registered a metalloenzyme activity recovered on metallo-β-lactamase (after overnight incubation) of 71%.

For `CC(=O)OC(C1CC(c2ccc(C)cc2)=NO1)[C@@H]1C(=O)N2[C@@H](C(=O)O)C(C)(C)S(=O)(=O)[C@H]12` (stereo partly drawn) [Example 10, 4-Thia-1-azabicyclo[3.2,0]heptane-2-carboxylic acid, 6-[(acetyloxy)[4,5-dihydro-3-(4-methylphenyl)-5-isoxazolyl]methyl]-3,3-dimethyl-7-oxo-, sodium salt, 4,4-dioxide, [2S-(2α, 5α, 6β)]-], the IC50 against P99 (Cephase) is 2.4 µM; in [1] (setting [5]), 100 µM; in test [1] (setting [6]), 210 µM; in test [1] (setting [7]) it was 3.9 µM; in test [1] (setting [8]) it was 3.2 µM; at PC1 (Penase) (setting [11]), 8 µM. The compound also gave an IC50 against CcrA (Metallo) of 16 µM. For the same compound, the “Microbiological activity / effect” value in test [2] is listed as “lowers the MICs of piperacillin for all the E. coli strains containing β-lactamases”. For the same compound, the remaining activity at 8 µM at metallo-β-lactamase came out at 45%. Also, the enzyme activity lost at metallo-β-lactamase (after overnight incubation) is given as > 99%.

`CC1(C)[C@H](C(=O)O)N2C(=O)[C@@H](CC3CC(c4ccsc4)=NO3)[C@H]2S1(=O)=O` (single isomer, unassigned) [Example 14, 4-Thia-1-azabicyclo[3.2.0.]heptane-2-carboxylic acid, 6-[[4,5-dihydro-3-(3-thienyl)-5-isoxazolyl]methyl]-3,3-dimethyl-7-oxo-, 4,4-dioxide, sodium salt, [2S-[2α, 5α, 6β(R* or S*)]]-]: the IC50 in test [1] (setting [5]) is 48 µM; in test [1] (setting [6]) it was 33 µM; in test [1] (setting [7]) it was 3.5 µM; in test [1] (setting [8]), 9.6 µM.

Turning to `CCN1CCN(C(=O)N[C@@H](C(=O)N[C@@H]2C(=O)N3[C@@H]2SC(C)(C)[C@@H]3C(=O)O)c2ccccc2)C(=O)C1=O` [Piperacillin, piperacillin], the “Microbiological activity / effect” value in [2] is on record as “decreased microbiological activity (increased MICs) in E. coli strains that had β-lactamases introduced into them”. Further, the “Minimum Inhibitory Concentration of Piperacillin” value was > 1024 µg/mL in the test with E. coli + TEM-1; 1 µg/mL in the test with E. coli 300; 128 µg/mL with E. cloacae + P99; 4 µg/mL in [3]; 16 µg/mL in [4].

As to `CCC1=NOC(CC2C(=O)N3C(C(=O)O)C(C)(C)S(=O)(=O)C23)C1` (single isomer, unassigned) [Example 12], the IC50 is > 250 µM in test [1] (setting [5]), > 250 µM in test [1] (setting [6]), 77 µM in test [1] (setting [7]) and 120 µM in test [1] (setting [8]).

As to `Cc1ccc(C2=NOC(C[C@@H]3C(=O)N4[C@@H](C(=O)O)C(C)(C)S(=O)(=O)[C@H]34)C2)cc1` (stereo partly drawn) [Example 5, 4-Thia-1-azabicyclo[3.2.0.]heptane-2-carboxylic acid, 6-[[4,5-dihydro-3-(4-methylphenyl)-5-isoxazolyl]methyl]-3,3-dimethyl-7-oxo-, sodium salt, 4,4-dioxide, [2R-[2α,5α,6β(S*)]]-], the IC50 is 27 µM in test [1] (setting [5]), 68 µM in test [1] (setting [6]), 2 µM in test [1] (setting [9]) and 6.9 µM in test [1] (setting [10]).

Broadly, the IC50 is the concentration that inhibits the measured activity by half.
